Six substances from patent publication US10561712B2, “Treatment of cancer and inhibition of metastasis using hemoglobin beta subunit” (UNIVERSITY OF MARYLAND, BALTIMORE, priority 2014, dated 2020) can be followed below.

For one assay, the system named is neuroblastoma cells. The experiment in a line: Viability of neuroblastoma cells with N- and C-terminal CNBr fragments of HBB. Type of assay: cell-based, human. The following applies: MTS-based proliferation assay and trypan blue exclusion; 72 hr; FIG. 5B. On the procedure: (§1) Neuroblastoma cells were seeded (3×10^4 per well) in a 96-well flat-bottomed tissue culture plate. After an incubation of 24 hr, cells were washed and incubated with the relevant factors (detailed in the following sections) diluted in starvation medium (RPMI-1640 containing 5% bovine serum albumin (BSA); Biological Industries, Kibbutz Beit Haemek, Israel; Sigma-Aldrich). Cell viability under normal conditions (starvation medium containing BSA) or after incubation with the relevant factors was monitored after 72 hr using an XTT (XTT cell proliferation kit; Biological Industries) or MTS-based (CellTiter 96® AQueous One Solution Cell Proliferation Assay; Promega) viability assays according to manufacturer instructions. Cells were also counted using the trypan-blue exclusion assay to verify the results obtained by XTT and MTS-based viability assays.
Human HBB was incubated at a concentration of 2 mg/ml with 50 mg/ml CNBr (Sigma-Aldrich) in 5% trifluoroacetic acid (Halocarbon). […] After 72 hr of incubation cell viability was assessed as described below.
In order to pin-point the active fragment of the human HBB protein, the protein was cleaved to two fragments using cyanogen bromide (CNBr). […] Significance was evaluated using Student's t-test for each variant incubated with N- or C-terminal fragments of human HBB compared to incubation with control media (not shown).

The subject of assay [1] is MicroNB cells (human neuroblastoma lung micrometastatic variant, MHH-NB11). Description: MTS-based viability assay, MicroNB cells. In kind it is cell-based. The note with it: 72 hr incubation, versus control media.
Source text: (§2) The human neuroblastoma lung micrometastatic (MicroNB) and macrometastatic (MacroNB) variants were generated using a mouse model for human neuroblastoma metastasis (Nevo et al., 2008) from the parental cell lines MHH-NB11 (Pietsch et al., 1988) and SH-SY5Y (Biedler et al., 1978) as detailed here (Edry Botzer et al., 2011), and were maintained in culture as previously described (Nevo et al., 2008). The MicroNB and MacroNB variants were previously designated DisNB and MetNB, respectively (Edry Botzer et al., 2011). Authentication of MicroNB and MacroNB cells was performed by short tandem repeat analysis of DNA using the Type-it Microsatellite PCR Kit (Qiagen, Valencia, Calif.), for the genes published by the American Type Culture Collection (ATCC) (Manassas, Va.). The parental cell line MHH-NB11 was kindly provided by Dr. T. Pietsch (Department of Neuropathology, University of Bonn Medical Center, Bonn, Germany).
as §1
Circular dichroism analysis of human hemoglobin (HB), hemoglobin subunit alpha (HBA) and subunit beta (HBB) indicated a helical structure for all three proteins (FIG. 3C). […] Neuroblastoma cells were seeded (3×10^4 per well) in a 96 well flat-bottomed tissue culture plate. After 24 hr of incubation cells were washed and incubated with human HBB dissolved in starvation medium (RPMI 5% BSA) to the indicated concentrations. Cell viability under normal conditions (starvation medium) or after incubation with human HBB was monitored after an incubation of 72 hr using an MTS-based viability assay (CellTiter 96® AQueous One Solution Cell Proliferation Assay, Promega) according to the manufacturer instructions. Data are means of three independent experiments±SD. Significance was evaluated using Student's t-test for each variant incubated with human HBB compared to incubation with control media (con).
Background: Tetrazolium assays rely on reduction of a dye to a coloured formazan, in cell work by metabolically active cells.

Assay [2] concerns MicroNB cells inoculated to the adrenal gland. The experiment in a line: Orthotopic MicroNB neuroblastoma model, HBB11p i.v. or inhaled versus PBS (Example 7). The following applies: for size of local tumors versus PBS-treated mice: FIG. 7B, 7C. Type of assay: in vivo, athymic nude mice. On the procedure:
(§3) An orthotopic inoculation to the adrenal gland of athymic nude mice was performed with either 50 μl of PBSX1 supplemented with 5% BSA, or with 1×10^6 MicroNB cells (generated as described previously (Edry Botzer et al., 2011)) suspended in 50 μl of PBSX1 supplemented with 5% BSA. The intra-adrenal inoculation was performed as detailed here (Nevo et al., 2008). In short, anesthesia was induced by ketamine (100 mg/kg body weight) and 2% xylazine (10 mg/kg body weight) administered intraperitoneally. Tumor cells (1×10^6/50 μl) or PBSX1 5% BSA (50 μl) were injected orthotopically into the left adrenal gland of nude mice.
(§4) The development of local tumors in the adrenal gland was monitored and measured weekly with an external digital caliper. The tumor volume in mm^3 was calculated by the ellipsoid volume calculation formula: Volume=[…] (Tomayko and Reynolds, 1989). At the end of the experiments, local adrenal tumors were weighed.
(§5) For examining the presence of micrometastatic cells in the lungs and bone marrow of mice, organs were harvested at the end of the experiment, and immediately snap frozen in dry ice. RNA was isolated from frozen tissues and used for the generation of first-strand cDNA using an M-MLV Reverse Transcriptase (See below, “RNA preparation and Reverse Transcription Polymerase Chain Reaction”). Quantification of human cells in mouse organs was determined by quantitative real-time PCR (qRT-PCR) assays.
(§6) Mice were orthotopically inoculated with MicroNB cells to the adrenal gland to generate local adrenal tumors and lung and bone marrow micrometastasis (see “Orthotopic inoculation of tumor cells”). Fourteen days post tumor cell inoculation mice were treated either intravenously or intranasally with 1 mg/kg (0.02 mg/mouse) of the short inhibitory human HBB peptide, Metox, once a week for 8 weeks.
(§7) For intranasal administration of Metox, the lyophilized peptide was dissolved prior to each administration in Dimethyl Sulfoxide (DMSO) (Sigma-Aldrich) to a concentration of 0.013 mg/μl, and then diluted in sterile PBSX1 to a concentration of 0.4 μg/μl. The dissolved peptide was filtered (0.2 μm) and mice were forced to inhale 50 μl of Metox (0.02 mg/mouse). Control group was forced to inhale 50 μl of a control scrambled peptide, scrambled-Metox (see “Solid-phase synthesis of Metox and scrambled-Metox peptides”).
Twenty four mice were orthotopically inoculated to the adrenal gland with MicroNB cells. Two weeks post inoculation, mice were either intravenously (IV) injected with HBB11p or PBS, or forced to inhale a droplet of soluble HBB11p, once a week for 8 weeks (FIG. 7A). Mice were monitored weekly for tumor volume. At the end of the experiment, local tumors were weighed and organs were harvested and examined for human neuroblastoma cells and for HBB2 expression using real time PCR (FIG. 7A).

Assay [3] shares this test system. The experiment in a line: Orthotopic MicroNB neuroblastoma model, intranasal Metox versus scrambled-Metox (Example 8). Type of assay: in vivo, athymic nude mice. The note with it: intranasal 1 mg/kg once a week for 8 weeks. The protocol:
as §3, §4, §5, §6, §7
In an experiment similar to that described in Example 7, athymic nude mice were orthotopically inoculated with MicroNB cells to the adrenal gland. […] Mice were monitored for tumor volume on a weekly basis.

Assay [4] deals with MacroNB cells (human neuroblastoma lung macrometastatic variant). Description: MTS-based viability assay, MacroNB cells. In kind it is cell-based. The following applies: 72 hr incubation, versus control media.
Source text: as §2
Neuroblastoma cells were seeded (3×10^4 per well) in a 96-well flat-bottomed tissue culture plate. […] Cell viability under normal conditions (starvation medium containing BSA) or after incubation with the relevant factors was monitored after 72 hr using an XTT (XTT cell proliferation kit; Biological Industries) or MTS-based (CellTiter 96® AQueous One Solution Cell Proliferation Assay; Promega) viability assays according to manufacturer instructions. Cells were also counted using the trypan-blue exclusion assay to verify the results obtained by XTT and MTS-based viability assays.
Circular dichroism analysis of human hemoglobin (HB), hemoglobin subunit alpha (HBA) and subunit beta (HBB) indicated a helical structure for all three proteins (FIG. 3C). […] Cell viability under normal conditions (starvation medium) or after incubation with human HBB was monitored after an incubation of 72 hr using an MTS-based viability assay (CellTiter 96® AQueous One Solution Cell Proliferation Assay, Promega) according to the manufacturer instructions. […] Significance was evaluated using Student's t-test for each variant incubated with human HBB compared to incubation with control media (con).

Assay [5] concerns MCF-7 breast carcinoma cells. The experiment in a line: Viability of cancerous cell lines, MCF-7. The note with it: MTS-based assay; FIG. 3E. The protocol:
as §1
When incubated with the highest amount of HBB (100 μg), the viability of the following cell lines was inhibited: the breast cancer cell lines T47D and MCF-7, the prostate cancer cell line 22RVi, the cervical cancer cell line Hela, and the melanoma cell lines RALL and RKTJ.

The mark [6] stands for this setting: HBB11p once a week for 8 weeks, data not shown.

For the substance “C-terminal fragment: 91 amino acid C-terminal fragment of human HBB from CNBr cleavage, SEQ ID NO:4”, the “influence on neuroblastoma cell viability (in words)” value in the assay on neuroblastoma cells was “responsible for the inhibitory activity”.
On to “ENFRLLGNVLVCVLA (listed as Homo sapiens) [HBB11p]”, for which the “influence on viability of MicroNB cells (in words)” value in assay [1] (listed as Peptide number 11) was “significantly inhibited the viability”. Also, in assay [1] (listed as peptide 11), the “influence on viability of MicroNB cells (in words)” value was “even greater than that caused by HBB”. Besides, in assay [2] (setting [6]), the “bone marrow metastasis versus PBS-treated mice” value was “significantly inhibited as well”, the “liver metastasis versus PBS-treated mice” value is “significantly inhibited as well” and the “spleen metastasis versus PBS-treated mice” value is “significantly inhibited as well”. In assay [2] (HBB11p once a week for 8 weeks, real time PCR, FIG. 7D), the “lung metastasis versus PBS-treated mice” value is “significantly inhibited”. Moreover, the “size of local tumors versus PBS-treated mice” value in assay [2] (inhaled droplet of HBB11p once a week for 8 weeks) is given as “significantly smaller”. The “size of local tumors versus PBS-treated mice” value in assay [2] (intravenous HBB11p once a week for 8 weeks) was “significantly smaller”. In assay [3] (70 days post inoculation, FIG. 8C, 8D), the “weight of local tumors of scrambled-Metox treated mice relative to Metox treated mice” value is listed as “significantly higher”. In addition, the “metastatic load of MicroNB cells in lungs versus scrambled-Metox” value in assay [3] (Real-Time PCR, FIG. 8E) is “significantly lower”. In assay [3] (Real-Time PCR, FIG. 8F), the “metastatic load of MicroNB cells in bone marrow versus scrambled-Metox” value is listed as “significantly lower”. Also, the “local tumor volume, Metox versus scrambled-Metox treated mice” value in assay [3] (twenty days after inoculation, more significant with time, FIG. 8B) is listed as “a difference was apparent”.
For “HBA: alpha subunit of human hemoglobin, HPLC-separated from native human hemoglobin [reference compound]”, the “influence on viability of MicroNB cells (in words)” value in assay [1] is recorded as “did not influence cell viability”. In addition, the “influence on viability of MacroNB cells (in words)” value in assay [4] is “did not influence cell viability”.
Regarding “HBB2: beta 2 subunit of mouse hemoglobin, SEQ ID NO:1; HPLC peak no. 4 of mouse lung-derived factors”, in assay [1], the “influence on viability of MicroNB cells (in words)” value is reported as “inhibited cell viability”. Besides, the “influence on viability of MacroNB cells (in words)” value in assay [4] was “inhibited cell viability”.
On to “N-terminal fragment: N-terminal fragment of human HBB from CNBr cleavage, SEQ ID NO:3”, for which the “influence on neuroblastoma cell viability (in words)” value in the assay with neuroblastoma cells is “exhibited an inhibitory effect however to a lesser extent”.
For “whole human hemoglobin protein: native human hemoglobin (Sigma), whole protein [reference compound]”, in assay [5], the “influence on viability of MCF-7 breast carcinoma cells (in words)” value is on record as “inhibited cell viability as well but not to the same extent as HBB”.
